Measurements reported in patent US6110122A, “Breath test for assessing hepatic function” (priority 1999, dated 2000).
Values joined by “and” are separate entries in the source; they are usually repeats but may differ in a detail not shown here. Identical values can stand only once. Each block holds one molecule with its values, some of them ahead of it.

What was measured:
[1] = tested on: mitochondrial function; details: therapeutic doses of ASA; cited from earlier work
[2] = tested on: hepatic mitochondrial function; experiment: Effect of alcohol and ASA ingestion on the MBT in healthy controls; type: in vivo, human; details: for effect of ingestion on MBT (in words): healthy controls
Method: […] The protocol was then identical to that described previously in Example 1.
The protocol for breath collection was followed as described previously.
The maximum percent dose oxidized per minute was calculated for each substrate following the procedure outlined above in Example 1.

[3] = tested on: hepatic mitochondria; details: in vivo; cited from earlier work
[4] = cited from earlier work
[5] = tested on: cytosolic function; details: patients with alcoholic disease; cited from earlier work
[6] = cited from earlier work; remark: listed apart in the source
[7] = tested on: hepatic mitochondrial function; experiment: MBT in patients with liver disease, reproducibility and correlation with Child-Pugh score
[8] = tested on: hepatic mitochondrial function; details: in vivo

SMILES: CC(=O)Oc1ccccc1C(=O)O [ASA, acetylsalicylic acid]
change detected by ^13 C-KICA test (in words) [1]: mitochondrial changes
mean change of MBT from baseline with ASA ([2]; ASA, n=11, p<0.001): 36±36%
effect of ingestion on MBT (in words) [2]: increases
MBT after ASA ingestion ([2]; individual subject, ASA 30 mg/kg 15 min prior to MBT): 9.47 % dose/hour and 10.08 % dose/hour and 8.88 % dose/hour and 8.73 % dose/hour and 7.77 % dose/hour and 7.34 % dose/hour and 9.24 % dose/hour and 6.47 % dose/hour and 8.61 % dose/hour and 6.88 % dose/hour and 9.27 % dose/hour

SMILES: CC(C)CC(=O)C(=O)O [KICA, ketoisocaproic acid]
reduction in ^14 CO2 production [3]: 75%
stability in solution (in words) [4]: instability in solution

SMILES: CCO [alcohol]
effect on KICA decarboxylation (in words) [3]: deceases KICA decarboxylation
mean change of MBT from baseline with alcohol ([2]; alcohol, n=9, p<0.003): -59±17%
effect of ingestion on MBT (in words) [2]: significantly decreases
MBT after alcohol ingestion ([2]; individual subject, 60 cc vodka 15 min prior to MBT): 3.36 % dose/hour and 4.54 % dose/hour and 2.76 % dose/hour and 2.22 % dose/hour and 2.97 % dose/hour and 3.39 % dose/hour and 1.86 % dose/hour and 3.52 % dose/hour and 2.45 % dose/hour
MBT after alcohol ingestion, group mean ([2]; n=9, 60 cc vodka 15 min prior to MBT): 3.01 % dose/hour and 3.01±0.81 % dose/hour

SMILES: Cc1c(N(C)C)c(=O)n(-c2ccccc2)n1C [aminopyrine]
aminopyrine breath test / galactose elimination capacity (in words) [5]: normal

SMILES: O=C[C@H](O)[C@@H](O)[C@@H](O)[C@H](O)CO [galactose]
aminopyrine breath test / galactose elimination capacity (in words) [5]: normal

MBT, Mean T1 and T2 (baseline), group mean ([2]; ASA group (n=11) before ASA): 6.17 % dose/hour
MBT, Mean T1 and T2 (baseline), group mean ([2]; alcohol group (n=9) before alcohol): 7.37 % dose/hour
MBT result for all patients ([7]; all liver patients): 2.85 % dose/hour
MBT 1, group mean ([7]; cirrhotic patients, mean): 2.67 % dose/hour
MBT 2, group mean ([7]; cirrhotic patients, mean): 2.86 % dose/hour
MBT Mean, group mean ([7]; cirrhotic patients, mean of MBT 1 and 2): 2.76 % dose/hour
MBT value (mean±SD), CP A ([7]; patients with CP score A): 5.16±1.61 % dose/hour
MBT value (mean±SD), CP B ([7]; patients with CP score B): 2.81±0.94 % dose/hour
MBT value (mean±SD), CP C ([7]; patients with CP score C): 1.45±0.55 % dose/hour
mean difference between MBT test 1 and test 2 (95% CI) [8]: -0.073 (-0.475,0.330)
SMILES: CSCC[C@H](N)C(=O)O [methionine, L-1-^13 C-methionine]
correlation r of methionine clearance with CP score ([6]; cirrhotic patients): -0.80
correlation r of methionine clearance with GEC ([6]; cirrhotic patients): 0.82
plasma clearance of methionine (in words) ([6]; intravenous, liver disease / cirrhotic patients vs healthy controls): reduced
fasting plasma methionine level (in words) ([6]; liver disease vs healthy controls): elevated
MBT 1 ([7]; cirrhotic patients, individual): 5.01 % dose/hour and 6.30 % dose/hour and 2.47 % dose/hour and 7.18 % dose/hour and 5.66 % dose/hour and 3.20 % dose/hour and 3.55 % dose/hour and 1.67 % dose/hour and 4.36 % dose/hour and 2.63 % dose/hour and 2.10 % dose/hour and 0.99 % dose/hour and 2.02 % dose/hour and 1.31 % dose/hour and 1.34 % dose/hour and 1.87 % dose/hour and 1.94 % dose/hour and 0.46 % dose/hour and 1.80 % dose/hour and 0.54 % dose/hour and 1.11 % dose/hour
MBT Mean ([7]; cirrhotic patients, individual, mean of MBT 1 and 2): 4.55 % dose/hour and 6.56 % dose/hour and 2.58 % dose/hour and 6.43 % dose/hour and 5.69 % dose/hour and 3.02 % dose/hour and 3.47 % dose/hour and 2.03 % dose/hour and 4.34 % dose/hour and 2.73 % dose/hour and 2.11 % dose/hour and 1.99 % dose/hour and 2.13 % dose/hour and 1.32 % dose/hour and 1.34 % dose/hour and 1.82 % dose/hour and 2.04 % dose/hour and 0.53 % dose/hour and 1.40 % dose/hour and 0.54 % dose/hour and 0.97 % dose/hour and 1.38 % dose/hour
MBT 2 ([7]; cirrhotic patients, individual, repeat within 12 h): 4.09 % dose/hour and 6.81 % dose/hour and 2.69 % dose/hour and 5.68 % dose/hour and 5.71 % dose/hour and 2.84 % dose/hour and 3.39 % dose/hour and 2.39 % dose/hour and 4.31 % dose/hour and 2.83 % dose/hour and 2.11 % dose/hour and 2.98 % dose/hour and 2.24 % dose/hour and 1.33 % dose/hour and 1.77 % dose/hour and 2.14 % dose/hour and 0.59 % dose/hour and 0.99 % dose/hour and 0.82 % dose/hour and 1.44 % dose/hour

SMILES: O=C([O-])c1ccccc1O.[Na+] [sodium salicylate]
effect on KICA decarboxylation (in words) [3]: increase in KICA decarboxylation
